Measured values published in ChEMBL document CHEMBL1201862, “PubChem BioAssay data set” (2004).
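Results reflect a 48-hour exposure of cells in 96-well plates to compound at five concentrations. Abbreviation: GI50, concentration required for 50% inhibition of growth.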 The source made the active and inactive calls. Rule as the data show it: active = GI50 up to about 1.1 µM and inactive = higher.

Experiments:
Assay in all cases: NCI anticancer screen, dose series, 48 h
HCT-15 = tested on: HCT-15
RPMI-8226 = tested on: RPMI-8226
OVCAR-3 = tested on: OVCAR-3
OVCAR-4 = tested on: OVCAR-4
NCI-H460 = tested on: NCI-H460
HT-29 = tested on: HT-29
SF-539 = tested on: SF-539
SW-620 = tested on: SW-620
OVCAR-8 = tested on: OVCAR-8
TK-10 = tested on: TK-10
DU-145 = tested on: DU-145
CAKI-1 = tested on: CAKI-1
SK-OV-3 = tested on: SK-OV-3
U-251 = tested on: U-251
Malme-3M = tested on: Malme-3M
T47D = tested on: T47D
NCI-H226 = tested on: NCI-H226
PC-3 = tested on: PC-3
MDA-MB-435 = tested on: MDA-MB-435
UO-31 = tested on: UO-31

Measured: GI50

OCCSCC(O)Cn1cnc2c(O)nc(Nc3ccccc3)nc21 (configuration not stated)
inactive: RPMI-8226 > 100 µM | OVCAR-3 > 100 µM | OVCAR-4 > 100 µM | NCI-H460 > 100 µM | HT-29 > 100 µM | SF-539 > 100 µM | SW-620 > 100 µM | OVCAR-8 > 100 µM | TK-10 > 100 µM | DU-145 > 100 µM | CAKI-1 > 100 µM | SK-OV-3 > 100 µM | U-251 > 100 µM | Malme-3M > 100 µM | T47D > 100 µM | NCI-H226 > 100 µM | PC-3 > 100 µM | MDA-MB-435 > 100 µM
> 100 µM: HCT-15

Cc1cc(Oc2cnc(=O)[nH]c2)cs1
inactive: RPMI-8226 > 100 µM | OVCAR-3 > 100 µM | NCI-H460 > 100 µM | HT-29 > 100 µM | SF-539 > 100 µM | SW-620 > 100 µM | OVCAR-8 > 100 µM | TK-10 > 100 µM | DU-145 > 100 µM | CAKI-1 > 100 µM | SK-OV-3 > 100 µM | U-251 > 100 µM | Malme-3M > 100 µM | T47D > 100 µM | NCI-H226 > 100 µM | UO-31 > 100 µM | PC-3 > 100 µM | MDA-MB-435 > 100 µM
> 100 µM: HCT-15

Cc1ccc(C(=O)Nc2ccc(CP(=O)(O)O)cc2)cc1NC(=O)c1cccc(N)c1
inactive: RPMI-8226 > 100 µM | OVCAR-3 > 100 µM | OVCAR-4 > 100 µM | HT-29 > 100 µM | SF-539 > 100 µM | SW-620 > 100 µM | OVCAR-8 > 100 µM | TK-10 > 100 µM | DU-145 > 100 µM | CAKI-1 > 100 µM | SK-OV-3 > 100 µM | U-251 > 100 µM | Malme-3M > 100 µM | T47D > 100 µM | NCI-H226 > 100 µM | UO-31 > 100 µM | PC-3 > 100 µM | MDA-MB-435 > 100 µM
> 100 µM: HCT-15

Cc1ccc(Nc2n[nH]c(=S)s2)cc1
> 100 µM: HCT-15
inactive: RPMI-8226 > 100 µM | OVCAR-3 > 100 µM | NCI-H460 > 100 µM | HT-29 > 100 µM | SF-539 > 100 µM | SW-620 > 100 µM | OVCAR-8 > 100 µM | TK-10 > 100 µM | DU-145 > 100 µM | CAKI-1 > 100 µM | SK-OV-3 > 100 µM | U-251 > 100 µM | Malme-3M > 100 µM | T47D 96.6 µM | NCI-H226 > 100 µM | UO-31 87.9 µM | PC-3 > 100 µM | MDA-MB-435 42.4 µM

CS(=O)(=O)c1nc(Cl)c(Cl)c(C#N)c1Cl
1.61 µM: HCT-15
active: CAKI-1 0.984 µM
inactive: RPMI-8226 2.32 µM | OVCAR-3 2.08 µM | OVCAR-4 1.96 µM | NCI-H460 11.5 µM | HT-29 1.97 µM | SF-539 4.48 µM | SW-620 1.14 µM | OVCAR-8 2.88 µM | TK-10 3.18 µM | DU-145 11.4 µM | SK-OV-3 6.75 µM | U-251 4.9 µM | Malme-3M 2.3 µM | T47D 2.16 µM | NCI-H226 13.2 µM | UO-31 1.91 µM | PC-3 5.35 µM | MDA-MB-435 2.01 µM

CC(C)CCCC(C)[C@H]1CCC2[C@@H]3CCC4Cc5nc6c(nc5C[C@]4(C)C3CC[C@@]21C)CC1CC[C@@H]2C(CC[C@@]3(C)C2CC[C@@H]3C(C)CCCC(C)C)[C@@]1(C)C6 (some centres not stated)
> 100 µM: HCT-15
inactive: RPMI-8226 > 100 µM | OVCAR-3 > 100 µM | OVCAR-4 > 100 µM | NCI-H460 > 100 µM | HT-29 > 100 µM | SF-539 > 100 µM | SW-620 > 100 µM | OVCAR-8 > 100 µM | TK-10 > 100 µM | DU-145 > 100 µM | SK-OV-3 > 100 µM | U-251 > 100 µM | Malme-3M > 100 µM | T47D > 100 µM | NCI-H226 > 100 µM | UO-31 > 100 µM | PC-3 > 100 µM | MDA-MB-435 > 100 µM

C=C1CC2(CCCC3(CC(=C)C(=O)O3)C2(C)C)OC1=O (configuration not stated)
0.491 µM: HCT-15
inactive: OVCAR-3 1.96 µM | OVCAR-4 4.85 µM | NCI-H460 18.7 µM | HT-29 3.82 µM | SF-539 3.26 µM | SW-620 1.39 µM | OVCAR-8 1.38 µM | TK-10 1.18 µM | DU-145 3.73 µM | CAKI-1 2.7 µM | SK-OV-3 20.5 µM | U-251 1.42 µM | Malme-3M 1.64 µM | T47D 3.33 µM | NCI-H226 2.22 µM | UO-31 3.06 µM | PC-3 8.09 µM | MDA-MB-435 2.75 µM
active: RPMI-8226 0.47 µM

Nc1nc(Br)nc2ncn(C3CC(O)C(CO)O3)c12 (configuration not stated)
> 100 µM: HCT-15
active: OVCAR-8 0.236 µM
inactive: RPMI-8226 > 90.2 µM | OVCAR-3 > 100 µM | OVCAR-4 > 100 µM | NCI-H460 85.1 µM | HT-29 52.7 µM | SF-539 58.7 µM | SW-620 > 24.8 µM | TK-10 > 100 µM | DU-145 > 100 µM | CAKI-1 16 µM | SK-OV-3 > 100 µM | U-251 > 53 µM | Malme-3M > 100 µM | T47D > 100 µM | NCI-H226 > 68.1 µM | UO-31 7.21 µM | PC-3 > 100 µM | MDA-MB-435 > 100 µM

CC(=O)N1C(Nc2cccc3nc(C)ccc23)CCN1c1ccccc1 (configuration not stated)
7.98 µM: HCT-15
inactive: RPMI-8226 > 10 µM | OVCAR-3 > 10 µM | OVCAR-4 > 10 µM | NCI-H460 > 10 µM | HT-29 > 10 µM | SF-539 > 10 µM | SW-620 5.73 µM | OVCAR-8 > 10 µM | TK-10 > 10 µM | DU-145 > 10 µM | CAKI-1 > 10 µM | SK-OV-3 > 10 µM | Malme-3M > 10 µM | T47D > 10 µM | NCI-H226 > 10 µM | UO-31 > 10 µM | PC-3 > 10 µM | MDA-MB-435 > 10 µM

COc1ccc(-n2c(N)c(C#N)[nH]c2=O)cc1
inactive: RPMI-8226 > 10 µM | OVCAR-3 > 10 µM | OVCAR-4 > 10 µM | NCI-H460 > 10 µM | HT-29 > 10 µM | SF-539 > 10 µM | SW-620 > 10 µM | OVCAR-8 > 10 µM | TK-10 > 10 µM | DU-145 > 10 µM | SK-OV-3 > 10 µM | U-251 > 10 µM | Malme-3M > 10 µM | T47D > 10 µM | NCI-H226 > 10 µM | UO-31 > 10 µM | PC-3 > 10 µM | MDA-MB-435 > 10 µM
> 10 µM: HCT-15

N#C/N=C1/c2ccccc2/C(=N/C#N)c2cc(CO)ccc21
27.2 µM: HCT-15
inactive: RPMI-8226 2.95 µM | OVCAR-3 26.9 µM | OVCAR-4 48.1 µM | NCI-H460 12.5 µM | HT-29 26.7 µM | SF-539 51.2 µM | SW-620 25.6 µM | OVCAR-8 37.8 µM | TK-10 27.3 µM | DU-145 26 µM | CAKI-1 25.3 µM | U-251 34.4 µM | T47D 31.6 µM | NCI-H226 37.8 µM | UO-31 30.2 µM | PC-3 33.7 µM | MDA-MB-435 27.4 µM

CCN(CC)C(=O)N1CN(c2ccccc2)C2(CCN(CCCC3(c4ccc(F)cc4)OCCO3)CC2)C1=O
inactive: RPMI-8226 12.9 µM | OVCAR-3 16.4 µM | OVCAR-4 22.4 µM | SF-539 16.6 µM | SW-620 18 µM | OVCAR-8 19.8 µM | TK-10 17.5 µM | DU-145 12.2 µM | CAKI-1 > 100 µM | SK-OV-3 24.4 µM | U-251 16.6 µM | Malme-3M 19.1 µM | T47D 5.9 µM | NCI-H226 30.5 µM | UO-31 18.4 µM | PC-3 17.5 µM | MDA-MB-435 18.6 µM
15.2 µM: HCT-15

CCOC(=O)C1=C(C)N(Cc2ccc(Cl)cc2Cl)C2(O)C=CC(=O)C3C(=O)N(c4ccccc4)C(=O)C132 (configuration not stated)
1.52 µM: HCT-15
inactive: OVCAR-3 1.37 µM | OVCAR-4 1.51 µM | NCI-H460 2.1 µM | HT-29 1.69 µM | SF-539 2.23 µM | SW-620 1.32 µM | OVCAR-8 2.02 µM | TK-10 2.72 µM | DU-145 1.36 µM | CAKI-1 3.02 µM | U-251 1.67 µM | Malme-3M 2.09 µM | T47D 1.55 µM | NCI-H226 1.54 µM | UO-31 2.07 µM | PC-3 1.5 µM | MDA-MB-435 1.81 µM
active: RPMI-8226 0.308 µM

Cc1cn(C2CC(O)C(Cn3nncc3Cn3ccc(=O)[nH]c3=O)O2)c(=O)[nH]c1=O (configuration not stated)
inactive: RPMI-8226 > 100 µM | OVCAR-3 > 100 µM | OVCAR-4 > 100 µM | HT-29 > 100 µM | SF-539 > 100 µM | SW-620 > 100 µM | OVCAR-8 > 100 µM | TK-10 > 100 µM | DU-145 > 100 µM | CAKI-1 > 100 µM | SK-OV-3 > 100 µM | U-251 > 100 µM | Malme-3M > 100 µM | T47D > 100 µM | NCI-H226 > 100 µM | UO-31 > 100 µM | PC-3 > 100 µM | MDA-MB-435 > 100 µM
> 100 µM: HCT-15

CNc1ccc(Cl)cc1C(=O)N1CCC[C@H]1CO
inactive: RPMI-8226 > 100 µM | OVCAR-3 > 100 µM | OVCAR-4 > 100 µM | NCI-H460 > 100 µM | HT-29 > 100 µM | SF-539 > 100 µM | SW-620 > 100 µM | OVCAR-8 > 100 µM | TK-10 > 100 µM | DU-145 > 100 µM | CAKI-1 > 100 µM | SK-OV-3 > 100 µM | U-251 > 100 µM | Malme-3M > 100 µM | T47D > 100 µM | NCI-H226 > 96.4 µM | UO-31 > 100 µM | PC-3 > 100 µM | MDA-MB-435 > 100 µM
> 100 µM: HCT-15
